Results as given in PMC10629583, “Specific inhibition of an anticancer target, polo-like kinase 1, by allosterically dismantling its mechanism of substrate recognition” (Proceedings of the National Academy of Sciences of the …, 2023).
“Also recorded” adds a separate entry of the source. Read-outs that look alike come from different tables or passages of the source. Blank lines part the entries; values can stand above or below the compound they belong to. Where no end group is shown, it is not given here. [ ]: non-standard residue; d: D form. pT = C[C@@H](OP(=O)(O)O)[C@H](N)C(=O)O

Key:
[1] = Conversion of Allopole to Allopole-A in buffers ± GSH (LC-MS); type: physicochemical; conditions: 100 µM Allopole, room temperature, 1 h
Protocol: High-performance liquid chromatography (HPLC)/high-resolution mass spectrometry was used to determine the products derived from investigational drugs incubated under various conditions by measuring their exact masses. Thereafter, 20 μL aliquots of several drug preparations in either DMSO or aqueous reaction solutions were diluted 2:1 in ethanol, followed by centrifugation at 15,000 × g for 5 min. The supernatant was then injected on a Thermo Vanquish liquid chromatograph coupled to a Thermo Q Exactive Orbitrap mass spectrometer (Thermo Fisher Scientific). The conditions for the analysis are listed as follows.
The analytes were identified using the Dmass between the predicted and measured exact monoisotopic mass for the protonated molecular ions applied to the empirical formula algorithm in the Qual Browser application of the Xcalibur software (Themo Scientific). Selected ions from the base peak chromatogram were extracted for integration of peak areas. The relative amounts of each analyte to the sum total were calculated to estimate conversion of and prodrug under the specific conditions to breakdown products.
Table S2. Conversion of Allopole to Allopole-A under various buffer conditions, room
Buffers* Compounds detected
Allopole-A Allopole-A (-S) Allopole (-Cl) Allopole
* Buffer #1: 20 mM Tris (pH 8.0), 50 mM NaCl, 1 mM EDTA, 1% DMSO
Buffer #2: 1 x PBS (pH 7.4), 1 mM EDTA, 1% DMSO
Buffer #3: 20 mM HEPES (pH 7.0), 50 mM NaCl, 1 mM EDTA, 1% DMSO
Samples were prepared by incubating 100 µM of Allopole in the indicated buffer conditions in the
absence or presence of 5 mM GSH for 1 h at room temperature. Note that in the absence of GSH,

[2] = biological target: T1, Plk3 PBD (PBD3) (Homo sapiens, UniProt Q9H4B4); assay: FP-based inhibition assay, PBD3; type: binding; conditions: bacterially expressed purified PBD, FITC-ligand 15 nM, PBD at EC85
T1 construct: MBP-PBD3-His (335–646) (pKM3359) and its A612F (pKM7981); His (C); made in house; host or cells: bacteria (E. coli)
T1 sequence (Q9H4B4 335-646): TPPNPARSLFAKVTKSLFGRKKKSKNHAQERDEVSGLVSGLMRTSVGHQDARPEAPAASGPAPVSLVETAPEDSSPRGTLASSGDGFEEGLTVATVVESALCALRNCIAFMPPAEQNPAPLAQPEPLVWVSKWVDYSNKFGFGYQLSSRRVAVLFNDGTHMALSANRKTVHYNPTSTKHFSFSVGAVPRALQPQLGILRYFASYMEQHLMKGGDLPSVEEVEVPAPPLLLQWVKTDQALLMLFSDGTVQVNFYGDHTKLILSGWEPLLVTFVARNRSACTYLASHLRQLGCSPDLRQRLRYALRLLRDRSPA
Protocol: (§1) FP assays were carried out essentially as described previously ([35], [36]). FITC-conjugated ligands (15 nM) were mixed with PBDs at their EC85 concentrations. All the samples were analyzed approximately 30 min after reaction in a 384-well format using the SpectraMax Paradigm multimode microplate detection platform (Molecular Devices). Data were analyzed after carrying out at least three independent experiments using GraphPad Prism software version 8.

[3] = biological target: T2, Plk2 PBD (PBD2) (Homo sapiens, UniProt Q9NYY3); assay: FP-based inhibition assay, PBD2; type: binding; conditions: bacterially expressed purified PBD, FITC-ligand 15 nM, PBD at EC85
T2 construct: Purification of PBD2-His (355–685) (pKM3358) and its S652F mutant (pKM7980); His (C); made in house; host or cells: bacteria (E. coli)
T2 sequence (Q9NYY3 355-685): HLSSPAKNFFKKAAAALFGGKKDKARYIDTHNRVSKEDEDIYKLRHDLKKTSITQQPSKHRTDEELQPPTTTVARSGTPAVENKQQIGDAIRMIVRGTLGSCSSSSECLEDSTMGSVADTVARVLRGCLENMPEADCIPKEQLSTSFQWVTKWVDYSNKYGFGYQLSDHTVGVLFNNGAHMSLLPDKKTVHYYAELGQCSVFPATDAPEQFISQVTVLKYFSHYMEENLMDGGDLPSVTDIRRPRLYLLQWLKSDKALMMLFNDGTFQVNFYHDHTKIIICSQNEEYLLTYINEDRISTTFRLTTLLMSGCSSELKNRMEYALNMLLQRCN
Protocol: as §1, with “FITC-conjugated ligands (15 nM) were mixed with PBDs at their EC85 concentrations.” left out

[4] = Solubility in PBS (imaging of insoluble particles, dynamic light scattering); type: physicochemical; conditions: PBS buffer (pH 7.4)
Protocol: All samples were analyzed after adjusting the concentration to 100 μM solution in the PBS buffer (pH 7.4) containing 1% DMSO. The measurements were carried out at 25 °C using the DynaPro NanoStar system (Wyatt Technology). The intensity of the scattered light was measured as a function of time, and the resulting data were used to calculate the size and distribution of the particles in the sample. Collected data were analyzed using the DYNAMICS software to calculate the mean size and polydispersity index of the particles in the sample. At least three repeat measurements were performed to ensure that the results were accurate and reproducible.
Fig. S1. Solubility and activity of Allopole and its related compounds. (A) Images showing insoluble
particles of 200 µM of the indicated compounds dissolved in the PBS buffer. The aggregates of […]

[5] = biological target: T3, full-length Plk1 (Homo sapiens, UniProt P53350); conditions: total lysates from HEK293A cells expressing full-length Plk1; ref Park, J.E., et al. (1); read-out: Anti-Plk1 (full length) ELISA (IC50) Mean ± SEM; cited from earlier work
T3 construct: expressed in transfected cells; host or cells: HEK293A cells infected with adenovirus; total lysate
T3 sequence (P53350 whole entry): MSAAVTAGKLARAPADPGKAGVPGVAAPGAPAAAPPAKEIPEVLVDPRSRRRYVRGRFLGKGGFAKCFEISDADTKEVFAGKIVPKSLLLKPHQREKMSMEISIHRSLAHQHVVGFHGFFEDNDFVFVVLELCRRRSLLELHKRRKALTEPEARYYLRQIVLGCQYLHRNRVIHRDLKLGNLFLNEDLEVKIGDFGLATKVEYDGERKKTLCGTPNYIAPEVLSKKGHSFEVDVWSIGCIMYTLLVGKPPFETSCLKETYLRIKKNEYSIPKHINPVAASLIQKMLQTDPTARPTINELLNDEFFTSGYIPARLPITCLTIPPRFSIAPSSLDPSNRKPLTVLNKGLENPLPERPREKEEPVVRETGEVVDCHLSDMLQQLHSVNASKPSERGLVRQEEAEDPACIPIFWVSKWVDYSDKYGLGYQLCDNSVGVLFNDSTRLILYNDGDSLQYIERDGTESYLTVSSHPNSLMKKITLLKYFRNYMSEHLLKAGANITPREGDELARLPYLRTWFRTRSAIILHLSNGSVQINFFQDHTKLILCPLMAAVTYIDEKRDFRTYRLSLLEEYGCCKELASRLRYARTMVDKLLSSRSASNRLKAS

[6] = system: L363 cells; design: method as in Park, J.E., et al. (1); conditions: MTS, 48 h treatment, ref Park, J.E., et al. (1), cited from earlier work
[7] = biological target: T4, Plk1 PBD (PBD1) (Homo sapiens, UniProt P53350); assay: FP-based inhibition assay, PBD1; type: binding; conditions: FP, bacterially expressed purified PBD, FITC-ligand 15 nM, PBD at EC85; read-out: PBD1 IC50 ± SD
T4 construct: constructs expressing PBD1 (residues 345–603) WT (pKM7650); His; TEV site (N); made in house; host or cells: bacteria (E. coli)
T4 sequence (P53350 345-603): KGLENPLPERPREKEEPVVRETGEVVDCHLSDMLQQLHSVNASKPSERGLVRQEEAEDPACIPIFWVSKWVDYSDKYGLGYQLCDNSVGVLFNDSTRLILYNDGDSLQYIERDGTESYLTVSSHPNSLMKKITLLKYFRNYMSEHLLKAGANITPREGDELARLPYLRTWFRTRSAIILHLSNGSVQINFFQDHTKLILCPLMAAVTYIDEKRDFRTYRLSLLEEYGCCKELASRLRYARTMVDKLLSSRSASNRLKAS
Protocol: as §1, with “FITC-conjugated ligands (15 nM) were mixed with PBDs at their EC85 concentrations.” left out

[8] = biological target: T3, full-length Plk1; assay: ELISA-based PBD1-binding inhibition assay; conditions: total lysates from HEK293A cells expressing full-length Plk1; biotinylated PBIP1 p-T78 peptide; read-out: Anti-Plk1 (full length) ELISA (IC50) Mean ± SEM
[9] = system: L363 cells; assay: MTS cell viability assay, L363 cells; type: cell-based; conditions: 48 h treatment, read-out: Cell efficacy (GI50) Mean ± SD
[10] = biological target: T5, human His-Plk1 (Homo sapiens, UniProt P53350); assay: In vitro Plk1 kinase assay (casein, 32P); type: biochemical; conditions: casein substrate
T5 construct: His (N); purchased Sino Biological; host or cells: Sf9
T5 sequence (P53350 whole entry): as the sequence (P53350 whole entry) above
Protocol: Kinase reactions were carried out in two steps. First, Sf9-purified 0.2 µg of human His-Plk1 (Sino Biological) was preincubated in a kinase cocktail [50 mM Tris-Cl (pH 7.5), 10 mM MgCl2, 2 mM dithiothreitol, 2 mM EGTA, and 27 mM p-nitrophenylphosphate] in the presence of either Allopole-A or p-13mer PBIP peptide for 20 min at 25 °C. The samples were then added with 1 µg of dephosphorylated casein (Sigma) and 1.25 µM of ATP (1.25 µCi of [γ^32P] ATP, 1Ci = 37 GBq) and reacted for additional 30 min at 30 °C. The reactions were terminated by the addition of 5× Laemmli SDS sample buffer, separated by 10% SDS-PAGE, and analyzed by autoradiography. To quantify the γ^32P signals, appropriate bands were excised from dried SDS-PAGE gels and analyzed by a liquid scintillation counter (Beckman model LS 6500).

[11] = Buffer #1 (20 mM Tris pH 8.0), no GSH
[12] = Buffer #2 (1 x PBS pH 7.4), no GSH
[13] = Buffer #3 (20 mM HEPES pH 7.0), no GSH

Compound: Cn1cnc([N+](=O)[O-])c1Sc1nnc2n(CC3CC3)c(=O)c3sccc3n12 [Allopole (-Cl)]
Compounds detected [1, 11]: 0.0 µmol/L | Compounds detected, % of total [1, 11]: 0.0% | Compounds detected, pk area [1, 11]: 4.85E+04 | Compounds detected ([1]; Buffer #1 + 5 mM GSH): 0.5 µmol/L | Compounds detected, % of total ([1]; Buffer #1 + 5 mM GSH): 0.5% | Compounds detected, pk area ([1]; Buffer #1 + 5 mM GSH): 6.89E+06 | Compounds detected [1, 12]: 0.0 µmol/L | Compounds detected, % of total [1, 12]: 0.0% | Compounds detected, pk area [1, 12]: 2.42E+04 | Compounds detected ([1]; Buffer #2 + 5 mM GSH): 0.3 µmol/L | Compounds detected, % of total ([1]; Buffer #2 + 5 mM GSH): 0.3% | Compounds detected, pk area ([1]; Buffer #2 + 5 mM GSH): 2.57E+06 | Compounds detected [1, 13]: 0.0 µmol/L | Compounds detected, % of total [1, 13]: 0.0% | Compounds detected, pk area [1, 13]: 0.00E+00 | Compounds detected ([1]; Buffer #3 + 5 mM GSH): 0.4 µmol/L | Compounds detected, % of total ([1]; Buffer #3 + 5 mM GSH): 0.4% | Compounds detected, pk area ([1]; Buffer #3 + 5 mM GSH): 1.11E+06

Compound: CCCn1c(=O)c2sc(C)cc2n2c(=S)[nH]nc12 [compound 3]
PBD3 IC50 ± SD [2]: N. S. | PBD2 IC50 ± SD [3]: N. S. | Solubility (in words) [4]: lower-than-acceptable solubility | IC50 [5]: 2.15 µM | Cell efficacy (GI50) Mean ± SD [6]: failed to induce any significant antiproliferation effect; also recorded: N. S | IC50 [7]: 0.0102 µM

Compound: CCCn1c(=O)c2sc(C)cc2n2c(Sc3c([N+](=O)[O-])ncn3C)nnc12 [compound 4]
Solubility (in words) [4]: lower-than-acceptable solubility; also recorded: low solubility | IC50 [5]: > 50 µM | GI50 ([6]; read-out: Cell efficacy (GI50) Mean ± SD): 4.88 ± 0.1 µM

Compound: CCCn1c(=O)c2oc3ccccc3c2n2c(Sc3c([N+](=O)[O-])ncn3C)nnc12 [compound 8]
IC50 [8]: > 50 µM | GI50 [9]: 8.31 ± 0.56 µM

Compound: CCCn1c(=O)c2oc3cccc(F)c3c2n2c(Sc3c([N+](=O)[O-])ncn3C)nnc12 [compound 10]
IC50 [8]: > 50 µM | GI50 [9]: 7.53 ± 0.43 µM

Now from value to compound, other results behind:

Solubility (in words) [4]: moderately; also recorded: moderate | IC50 [8]: > 50 µM
Compound: CCCn1c(=O)c2sccc2n2c(Sc3c([N+](=O)[O-])ncn3C)nnc12 [compound 12]
GI50 [9]: 8.4 ± 0.74 µM

IC50 [8]: > 50 µM
Compound: CCCn1c(=O)c2sc(Cl)cc2n2c(Sc3c([N+](=O)[O-])ncn3C)nnc12 [compound 14]
GI50 [9]: 6.04 ± 0.17 µM

Solubility (in words) [4]: moderately; also recorded: moderate | IC50 [8]: > 50 µM
Compound: CCCn1c(=O)c2sc(C(C)(C)C)cc2n2c(Sc3c([N+](=O)[O-])ncn3C)nnc12 [compound 16]
GI50 [9]: 4.19 ± 0.15 µM

IC50 [8]: > 50 µM
Compound: CCCn1c(=O)c2sc3ccccc3c2n2c(Sc3c([N+](=O)[O-])ncn3C)nnc12 [compound 18]
GI50 [9]: 7.05 ± 0.27 µM

Effect on His-Plk1 kinase activity in vitro (in words) [10]: increased it
Compound: CETFDPPLHSpTAI (CETFDPPLHS[pT]AI) [p-13mer, phospho-13mer ligand derived from the PBIP1 p-T78 motif, reference compound]
